Assay results: US8044073B2, “Aminobenzimidazoles and benzimidazoles as inhibitors of respiratory syncytial virus replication” (Tibotec Pharmaceuticals, priority 2003, dated 2011)
Like-named read-outs stand apart in the source and are kept apart here.

Tested on: Respiratory Syncytial Virus
Assay: In vitro screening for activity against RSV (tetrazolium-based colorimetric assay, protection against viral cytopathology)
Format: cell-based
Conditions: for EC50: human respiratory syncytial virus, 168 h, read-out: Activity (converted)
Source text: The percent protection against cytopathology caused by viruses (antiviral activity or EC50) achieved by tested compounds and their cytotoxicity (CC50) are both calculated from dose-response curves. The selectivity of the antiviral effect is represented by the selectivity index (SI), calculated by dividing the CC50 (cytotoxic dose for 50% of the cells) by the EC50 (antiviral activity for 50% of the cells). The tables in the above experimental part list the category to which each of the prepared compounds belong: Compounds belonging to activity category “A” have a pEC50 (−log of EC50 when expressed in molar units) equal to or more than 7. Compounds belonging to activity category “B” have a pEC50 value between 6 and 7.
Automated tetrazolium-based colorimetric assays were used for determination of EC50 and CC50 of test compounds. Flat-bottom, 96-well plastic microtiter trays were filled with 180 μl of Eagle's Basal Medium, supplemented with 5% FCS (0% for FLU) and 20 mM Hepes buffer. Subsequently, stock solutions (7.8× final test concentration) of compounds were added in 45 μl volumes to a series of triplicate wells so as to allow simultaneous evaluation of their effects on virus- and mock-infected cells. Five five-fold dilutions were made directly in the microtiter trays using a robot system. Untreated virus controls, and HeLa cell controls were included in each test. Approximately 100 TCID50 of Respiratory Syncytial Virus was added to two of the three rows in a volume of 50 μl. The same volume of medium was added to the third row to measure the cytotoxicity of the compounds at the same concentrations as those used to measure the antiviral activity. After two hours of incubation, a suspension (4×10^5 cells/ml) of HeLa cells was added to all wells in a volume of 50 μl. The cultures were incubated at 37° C. in a 5% CO2 atmosphere. Seven days after infection the cytotoxicity and the antiviral activity was examined spectrophotometrically. To each well of the microtiter tray, 25 μl of a solution of MTT (3-(4,5-dimethylthiazol-2-yl)-2,5-diphenyltetrazolium bromide) was added. The trays were further incubated at 37° C. for 2 hours, after which the medium was removed from each cup. Solubilization of the formazan crystals was achieved by adding 100 μl 2-propanol. Complete dissolution of the formazan crystals were obtained after the trays have been placed on a plate shaker for 10 min. Finally, the absorbances were read in an eight-channel computer-controlled photometer (Multiskan MCC, Flow Laboratories) at two wavelengths (540 and 690 nm). The absorbance measured at 690 nm was automatically subtracted from the absorbance at 540 nm, so as to eliminate the effects of non-specific absorption.
The percent protection against cytopathology caused by viruses (antiviral activity or EC50) achieved by tested compounds and their cytotoxicity (CC50) were both calculated from dose-response curves. The selectivity of the antiviral effect is represented by the selectivity index (SI), calculated by dividing the CC50 (cytotoxic dose for 50% of the cells) by the EC50 (antiviral activity for 50% of the cells).

[1] = Table 1, RSV in HeLa cells, MTT, seven days after infection, pEC50 = -log of EC50 in molar units
[2] = Table 2, RSV in HeLa cells, MTT, seven days after infection, pEC50 = -log of EC50 in molar units
[3] = Table 3, RSV in HeLa cells, MTT, seven days after infection, pEC50 = -log of EC50 in molar units
[4] = Table 4, RSV in HeLa cells, MTT, seven days after infection, pEC50 = -log of EC50 in molar units
[5] = Table 5a, RSV in HeLa cells, MTT, seven days after infection, pEC50 = -log of EC50 in molar units
[6] = Table 5b, RSV in HeLa cells, MTT, seven days after infection, pEC50 = -log of EC50 in molar units

Cc1ccc(O)c(Cn2c(N)nc3ccc(CNc4cc(C(C)(C)C)cc(C(C)(C)C)c4)cc32)n1 [Compound 76]
Activity [1]: 6.8

Cc1ccc(O)c(Cn2c(N)nc3ccc(CNc4cccc(OCc5ccccc5)c4)cc32)n1 [Compound 77]
Activity [1]: 6.8

Cc1ccc(O)c(Cn2c(N)nc3ccc(CNc4cc(C(=O)O)cc(C(F)(F)F)c4)cc32)n1 [Compound 78]
Activity [1]: 6.6

Cc1ccc(O)c(Cn2c(N)nc3ccc(CNc4cccc(Cc5ccccc5)c4)cc32)n1 [Compound 79]
Activity [1]: 6.4

Cc1ccc(O)c(Cn2c(N)nc3ccc(CNc4cc(OCC(F)(F)F)cc(OCC(F)(F)F)c4)cc32)n1 [Compound 80]
Activity [1]: 6.2

Cc1ccc(O)c(Cn2c(N)nc3ccc(CNc4ccccc4CCO)cc32)n1 [Compound 81]
Activity [1]: 9.4

Cc1ccc(O)c(Cn2c(N)nc3ccc(CNc4cccc(C)c4CCO)cc32)n1 [Compound 84]
Activity [1]: 9

Cc1ccc(O)c(Cn2c(N)nc3ccc(CNc4ccc(C(N)=O)cc4)cc32)n1 [Compound 85]
Activity [1]: 8.4

Cc1ccc(O)c(Cn2c(N)nc3ccc(CNc4cccc(C)c4CO)cc32)n1 [Compound 87]
Activity [1]: 8.2

Cc1ccc(O)c(Cn2c(N)nc3ccc(CNc4cc(C#N)ccc4CCO)cc32)n1 [Compound 89]
Activity [1]: 10.6

Cc1ccc(OCCO)c(NCc2ccc3nc(N)n(Cc4nc(C)ccc4O)c3c2)c1 [Compound 91]
Activity [1]: 10.5

C#Cc1ccc(CCO)c(NCc2ccc3nc(N)n(Cc4nc(C)ccc4O)c3c2)c1 [Compound 92]
Activity [1]: 10.4

Cc1ccc(O)c(Cn2c(N)nc3cc(CNc4ccccc4)ccc32)n1 [Compound 116]
Activity [2]: 7.0

Cc1cc(C)cc(NCc2ccc3c(c2)nc(N)n3Cc2nc(C)ccc2O)c1 [Compound 117]
Activity [2]: 6.8

CC(=O)c1cccc(NCc2ccc3c(c2)nc(N)n3Cc2nc(C)ccc2O)c1 [Compound 118]
Activity [2]: 6.4

Cc1ccc(O)c(Cn2c(N)nc3cc(CNc4cccc(C)c4C)ccc32)n1 [Compound 119]
Activity [2]: 6.4

Cc1cccc(NCc2ccc3c(c2)nc(N)n3Cc2nc(C)ccc2O)c1 [Compound 120]
Activity [2]: 6.4

Cc1ccc(O)c(Cn2c(N)nc3cc(CNc4cc(Cl)cc(Cl)c4)ccc32)n1 [Compound 121]
Activity [2]: 5.8

Cc1ccc(O)c(Cn2c(N)nc3cc(CNc4cccc(Cl)c4)ccc32)n1 [Compound 122]
Activity [2]: <4.0

Cc1ccc(O)c(Cn2c(N)nc3cc(CNc4cccc5cccnc45)ccc32)n1 [Compound 123]
Activity [2]: <4.0

Cc1ccc(O)c(Cn2c(N)nc3cc(CNc4cccc(F)c4)ccc32)n1 [Compound 124]
Activity [2]: <4.0

CCc1cccc(NCc2ccc3c(c2)nc(N)n3Cc2nc(C)ccc2O)c1 [Compound 125]
Activity [2]: <4.0

Cc1ccc(O)c(Cn2c(N)nc3cc(CNc4cccc(Br)c4)ccc32)n1 [Compound 126]
Activity [2]: <4.0

C#Cc1cccc(NCc2ccc3c(c2)nc(N)n3Cc2nc(C)ccc2O)c1 [Compound 127]
Activity [2]: <4.0

Cc1ccc(O)c(Cn2c(N)nc3ccc(CN(Cc4ccccc4)c4ccccc4)cc32)n1 [Compound 133]
Activity [3]: 7.5

Cc1ccc(O)c(Cn2c(N)nc3ccc(CN(C)c4ccccc4CCO)cc32)n1 [Compound 166]
Activity [3]: 6.8

Cc1ccc(O)c(Cn2c(N)nc3ccc(CN(CCC(N)=O)c4cc(Cl)cc(Cl)c4)cc32)n1 [Compound 167]
Activity [3]: 9.4

Cc1cccc(N(CCCS(N)(=O)=O)Cc2ccc3nc(N)n(Cc4nc(C)ccc4O)c3c2)c1 [Compound 168]
Activity [3]: 9.3

Cc1cccc(N(CCOCCO)Cc2ccc3nc(N)n(Cc4nc(C)ccc4O)c3c2)c1.Cl [Compound 171]
Activity [3]: 8.9

CNC(=O)CCN(Cc1ccc2nc(N)n(Cc3nc(C)ccc3O)c2c1)c1cccc(C)c1.Cl [Compound 172]
Activity [3]: 8.8

Cc1ccc(O)c(Cn2c(N)nc3ccc(CN(CCO)c4cnc5ccccc5c4)cc32)n1 [Compound 175]
Activity [3]: 8.5

Cc1cccc(N(Cc2ccc3nc(N)n(Cc4nc(C)ccc4O)c3c2)Cc2c[nH]cn2)c1 [Compound 176]
Activity [3]: 8.3

Cc1cccc(N(Cc2ccc3nc(N)n(Cc4nc(C)ccc4O)c3c2)CC(O)CO)c1 (centres unmarked) [Compound 180]
Activity [3]: 9.3

Cc1cc(C)cc(NCc2ccc3ncn(Cc4nc(C)ccc4O)c3c2)c1 [Compound 184]
Activity [4]: 6.7

Cc1ccc(O)c(Cn2cnc3ccc(CNc4cc(Cl)cc(Cl)c4)cc32)n1 [Compound 185]
Activity [4]: 6.1

Cc1ccc(O)c(Cn2cnc3ccc(CNc4cccc(Cl)c4)cc32)n1 [Compound 186, 2-{6-[(3-chloro-phenylamino)-methyl]-benzoimidazol-1-ylmethyl}-6-methyl-pyridin-3-ol]
EC50 [4]: 1.58 µM

CCc1cccc(NCc2ccc3ncn(Cc4nc(C)ccc4O)c3c2)c1 [Compound 187]
Activity [4]: 5.7

Cc1ccc(O)c(Cn2cnc3ccc(/C=C/C#N)cc32)n1 [Compound 189]
Activity [4]: 4.8

Cc1ccc(O)c(Cn2cnc3ccc(NC(=O)c4ccccc4)cc32)n1 [Compound 190]
Activity [4]: <4.0

Cc1ccc(CCCO)c(NCc2ccc3ncn(Cc4nc(C)ccc4O)c3c2)c1 [Compound 191]
Activity [4]: 7.9

Cc1ccc(CCO)c(NCc2ccc3ncn(Cc4nc(C)ccc4O)c3c2)c1 [Compound 192]
Activity [4]: 7.8

Cc1cccc(N(CCO)Cc2ccc3ncn(Cc4nc(C)ccc4O)c3c2)c1 [Compound 193]
Activity [4]: 6.3

Cc1ccc(O)c(Cn2c(N)nc3ccc(CCCN)cc32)n1.Cl [Compound 196]
Activity [5]: 7.7

Cc1ccc(O)c(Cn2c(N)nc3ccc(CCC#N)cc32)n1 [Compound 198]
Activity [5]: 6.8

Cc1cc(C)c2nc(N)n(Cc3nc(C)ccc3O)c2c1 [Compound 199]
Activity [5]: 6.8

CNc1nc2ccc(CO)cc2n1Cc1nc(C)ccc1O [Compound 200]
Activity [5]: 4.9

CNc1nc2cc(CO)ccc2n1Cc1nc(C)ccc1O [Compound 202]
Activity [5]: <4.0

Cc1ccc(CCCO)c(NCc2ccc3nc(N)n(Cc4cccc5cccnc45)c3c2)c1 [Compound 208]
Activity [6]: 7.9

COc1ccc(C)nc1Cn1c(N)nc2ccc(CNc3cc(C)ccc3CCCO)cc21 [Compound 209]
Activity [6]: 7.8

Cc1ccc(CCCO)c(NCc2ccc3nc(N)n(Cc4cccc(Br)n4)c3c2)c1 [Compound 212]
Activity [6]: 7.5

Cc1ccc(CCCO)c(NCc2ccc3nc(N)n(Cc4cccc5cccnc45)c3c2)c1 [Compound 214]
Activity [6]: 7.3

Cc1ccc(CCCO)c(NCc2ccc3nc(N)n(Cc4nc(C)c(C)nc4C)c3c2)c1 [Compound 218]
Activity [6]: 6.1

Cc1ccc(CCCO)c(NCc2ccc3nc(N)n(Cc4ccc(F)cc4)c3c2)c1 [Compound 219]
Activity [6]: 5.3

Nc1nc2ccc(CO)cc2n1Cc1cccc2cccnc12 [Compound 222, (2-amino-3-quinolin-8-ylmethyl-3H-benzoimidazol-5-yl)-methanol]
EC50 [6]: 39.8 µM

Cc1cccc(N(CCCO)Cc2ccc3nc(N)n(Cc4cccc5cccnc45)c3c2)c1 [Compound 225]
Activity [6]: <4

Cc1ccc(CCCO)c(NCc2ccc3nc(N)n(Cc4cccc(Br)n4)c3c2)c1 [Compound 228]
Activity [6]: <4

COc1ccc(C)nc1Cn1c(N)nc2ccc(CNc3cc(C)ccc3CCCO)cc21 [Compound 234]
Activity [6]: <4

Cc1ccc(CCCO)c(NCc2ccc3nc(N)n(Cc4cccc5c4ncn5C)c3c2)c1 [Compound 235]
Activity [6]: <4

Cc1ccc(O)c(Cn2cnc3cc(CNCCCC4CCC(=O)N4)ccc32)n1 (centres unmarked) [Compound 241]
Activity (Table 6, numeric activity values, pEC50 (−log of EC50 in molar units)): 4.5
